Peptide text beside a SMILES is read from it.
System: not given
Experiment: not given
Assay type: physicochemical
Settings: not given
Source text: In an embodiment of the present invention, the content of Reb. D in the complex is an amount equal to or less than the saturation solubility relative to the at least one compound selected from the carbohydrates and the water-soluble vitamins and the salts thereof. The saturation solubility means an amount (mg) with which Reb. D is no longer dissolved in a melt of 1 g of the at least one compound selected from the carbohydrates and the water-soluble vitamins and the salts thereof. The saturation solubility varies depending on the type of the compound and the temperature of the melt, but can be easily and accurately confirmed by actually forming a melt and dissolving Reb. D therein. For example, when forming a melt by using erythritol, 112 mg of Reb. D is dissolved in 1 g of erythritol at 190° C. (i.e., 112 mg/g).

| saturation solubility of Reb. D in erythritol melt [mg/g] | SMILES |
| --- | --- |
| 112 | C=C1C[C@@]23CC[C@H]4[C@@](C)(CCC[C@@]4(C)C(=O)O[C@@H]4OC(CO)[C@@H](O)C(O)C4O[C@@H]4OC(CO)[C@@H](O)C(O)C4O)[C@@H]2CC[C@]1(O[C@@H]1OC(CO)[C@@H](O)C(O[C@@H]2OC(CO)[C@@H](O)C(O)C2O)C1O[C@@H]1OC(CO)[C@@H](O)C(O)C1O)C3 (some centres unmarked) [Reb. D, rebaudioside D] |

System: not listed separately
Experiment: Evaluation of melting/dissolution (Example A): melting of auxiliary raw material and dissolution of Reb. D in the melt
Settings: not given
Protocol: The meltability of a raw material to be combined with Reb. D (hereinafter also referred to as “the auxiliary raw material”) and the solubility of Reb. D were evaluated, and the auxiliary raw material with which the complex of the present invention can be obtained was examined. As the auxiliary raw material, raw materials described in the table below were selected from food additives that can be added to beverages. The raw materials used for forming the complex are as follows: Reb. D formulation (purity: 95% (w/w), manufactured by Jining Renewal and Joint International); D-allulose (purity: 99%+), arabinose (purity: 98%+), fructose (purity: 99%+), glucose (purity: 99%+), maltose monohydrate (purity: 95%+), mannitol (purity: 99%+), mannose (purity: 98%+), rhamnose (purity: 98%+), ribose (purity: 98%+), sucrose (purity: 99%+), xylitol (purity: 98%+) and xylose (purity: 98%+), trehalose dihydrate (purity: 98%+), sodium pantothenate (purity: 98%+) (each manufactured by NACALAI TESQUE, INC.); and erythritol (purity: 98% (w/w), manufactured by Mitsubishi-Chemical Foods Corporation). Also in the subsequent working examples, the raw materials described above were used unless otherwise stated.
The auxiliary raw material described in Table 1 was mixed with 100 mg of Reb. D formulation (purity: 95% (w/w)) in a heat-resistant vial, the temperature was elevated to the melting point of the auxiliary raw material or higher, and it was confirmed whether or not the auxiliary raw material was melted. After melting of the auxiliary raw material and dissolution of the Reb. D formulation were visually confirmed, the mixture was rapidly cooled in ice and stored at 10° C. The weight of the auxiliary raw material was adjusted based on the amount that enables dissolution of Reb. D. The weight of D-allulose (another name: D-psicose) was 2,000 mg, the weight of L-glutamine was 1,000 mg, the weight of vitamin D3 was 1,144 mg, and the weight of an auxiliary raw material other than those was 4,000 mg. The case where it was recognized that the auxiliary raw material was melted and that Reb. D was dissolved (including the case where dissolution was visually recognized more when compared to the point of adding (complete dissolution is not required)) was evaluated as “O”, and the case where it was not recognized that the auxiliary raw material was melted even at a temperature equal to or higher than the melting point of the auxiliary raw material, or the case where it was not recognized that Reb. D was dissolved though the auxiliary raw material was successfully melted (after the addition, change in outer appearance was not visually recognized) was evaluated as “X”.

| Melting/dissolution | SMILES |
| --- | --- |
| ◯ | O=C(O)CC(O)C(=O)O (racemic) [DL-malic acid] |
| ◯ | OC[C@@H](O)[C@H](O)[C@@H](O)CO [Xylitol] |
| ◯ | NC(=O)CC[C@H](N)C(=O)O [L-glutamine] |
| ◯ | O=C[C@H](O)[C@H](O)[C@H](O)CO [Ribose] |
| ◯ | OC[C@H]1O[C@@](CO)(O[C@H]2O[C@H](CO)[C@@H](O)[C@H](O)[C@H]2O)[C@@H](O)[C@@H]1O [Sucrose] |
| ◯ | CC(C)(CO)[C@@H](O)C(=O)NCCC(=O)[O-].[Na+] [Sodium pantothenate] |
| ◯ | OC[C@@H](O)[C@@H](O[C@H]1O[C@H](CO)[C@@H](O)[C@H](O)[C@H]1O)[C@H](O)[C@@H](O)CO [Maltitol] |
| ◯ | OC[C@H]1O[C@H](O[C@H]2[C@H](O)[C@@H](O)C(O)O[C@@H]2CO)[C@H](O)[C@@H](O)[C@@H]1O (mixture of isomers) [Maltose] |
| ◯ | OC[C@@H](O)[C@@H](O)[C@H](O)[C@H](O)CO [Mannitol] |
| ◯ | OC[C@@H](O)[C@@H](O)CO [Erythritol] |
| ◯ | O=C(CO)[C@H](O)[C@H](O)[C@H](O)CO [D-allulose] |

More lines, now with the values behind:

| SMILES | Melting/dissolution |
| --- | --- |
| O=C[C@@H](O)[C@H](O)[C@H](O)CO [Arabinose] | ◯ |
| C[C@H](O)[C@H](O)[C@@H](O)[C@@H](O)C=O [Rhamnose] | ◯ |
| O=C[C@H](O)[C@@H](O)[C@H](O)CO [Xylose] | ◯ |
| O=C(CO)[C@@H](O)[C@H](O)[C@H](O)CO [Fructose] | ◯ |

Same assay, conditions: auxiliary raw material mixed with 100 mg of Reb. D formulation, heated to melting point or higher, visual

| SMILES | Melting/dissolution |
| --- | --- |
| C=C1CC[C@H](O)C/C1=C/C=C1\CCC[C@]2(C)[C@@H]([C@H](C)CCCC(C)C)CC[C@@H]12 [Vitamin D3] | ◯ |

System: not given
Experiment: not given
Settings: times the sweetness of sugar / sucrose; cited from earlier work

| SMILES | sweetness relative to sugar (sucrose) |
| --- | --- |
| CC1=CC(=O)NS(=O)(=O)O1 [acesulfame potassium] | about 200 times |
| OC[C@H]1O[C@H](O[C@]2(CCl)O[C@H](CCl)[C@@H](O)[C@@H]2O)[C@H](O)[C@@H](O)[C@H]1Cl [sucralose] | about 600 times |
| COC(=O)[C@H](Cc1ccccc1)NC(=O)[C@@H](N)CC(=O)O [aspartame] (H-Asp-Phe-OMe) | about 180 times |

System: panelists trained about sensory attributes of sweeteners
Experiment: Evaluation of flavor by trained panelists (Example Q)
Assay type: in vivo
Settings: 300 mg/L in terms of Reb. A or Reb. D; sucrose 9 SEV; 5 panelists; 0 to 6 points, sucrose control = 3
Protocol: In order to confirm effects of the three-component complex of erythritol/Reb. D/fructose, evaluation of flavor was made. Reb. A and Reb. D were also used, and sucrose was used as a control. Each of a two-component complex and a three-component complex was prepared as a solid according to the method of the working example so that about 3.6% of Reb. D was contained. Each of the complexes or Reb. A was subjected to adjustment by adding water thereto in a manner such that the amount in terms of Reb. A or Reb. D became 300 mg/L. The concentration of the sucrose solution was adjusted to be 9 SEV (sucrose equivalent value). Evaluation of taste quality was made by panelists trained about sensory attributes of sweeteners (5 members). The respective items of evaluation of flavor (on-set speed, lingering sweet aftertaste, bitterness intensity, lingering bitter aftertaste and comprehensive evaluation) were scored in a range of 0 to 6 points. As a reference, sucrose alone was used as a control (3 points). 6 points means high on-set speed of sweetness, short lingering sweet aftertaste, low bitterness intensity, short lingering bitter aftertaste and satisfactory overall evaluation.

| SMILES | Bitterness intensity [points] | Comprehensive evaluation [points] | Lingering bitter aftertaste [points] | Lingering sweet aftertaste [points] | On-set speed [points] |
| --- | --- | --- | --- | --- | --- |
| C=C1C[C@@]23CC[C@H]4[C@@](C)(CCC[C@@]4(C)C(=O)O[C@@H]4O[C@H](CO)[C@@H](O)[C@H](O)[C@H]4O)[C@@H]2CC[C@]1(O[C@@H]1O[C@H](CO)[C@@H](O)[C@H](O[C@@H]2O[C@H](CO)[C@@H](O)[C@H](O)[C@H]2O)[C@H]1O[C@@H]1O[C@H](CO)[C@@H](O)[C@H](O)[C@H]1O)C3 [Reb. A, rebaudioside A] | 2.10 | 1.70 | 1.70 | 1.70 | 2.60 |
| C=C1C[C@@]23CC[C@H]4[C@@](C)(CCC[C@@]4(C)C(=O)O[C@@H]4OC(CO)[C@@H](O)C(O)C4O[C@@H]4OC(CO)[C@@H](O)C(O)C4O)[C@@H]2CC[C@]1(O[C@@H]1OC(CO)[C@@H](O)C(O[C@@H]2OC(CO)[C@@H](O)C(O)C2O)C1O[C@@H]1OC(CO)[C@@H](O)C(O)C1O)C3 (some centres unmarked) [Reb. D, rebaudioside D] | 2.10 | 2.20 | 2.40 | 2.50 | 2.40 |
| OC[C@H]1O[C@@](CO)(O[C@H]2O[C@H](CO)[C@@H](O)[C@H](O)[C@H]2O)[C@@H](O)[C@@H]1O [Sucrose] | 3.00 | 3.00 | 3.00 | 3.00 | 3.00 |
